Assay results published in US20260355318A1, “MOLECULAR MACHINES FOR TREATMENT OF CANCER, FUNGAL INFECTIONS, OR BACTERIAL INFECTIONS” (priority 2022, published 2026).

Legend:
C. albicans [1] = assay: Time-kill assay, C. albicans; type: cell-based, Candida albicans; details: C. albicans, 2×MIC, 405-nm light at 292 mW cm^−2
Procedure: For yeasts, five independent colonies were collected from 24-h SDAE plates, inoculated into yeast peptone with 2% dextrose (YPD), and grown for 24 h at 30 °C. Cells were then sub-cultured in fresh medium and grown for ~9 h. Afterward, the cells were centrifuged (5,000 ×g, 5 min), washed, and resuspended in phosphate-buffered saline (PBS) to ~10^6 CFU mL^−1. For A. fumigatus, conidia suspensions (~10^4 CFU mL^−1) were prepared in PBS as previously described.
Amphotericin B (AMB, 4×MIC) controls were prepared likewise, but light was omitted. Aliquots were collected in 1-min increments for up to 10 min, serially diluted in PBS, and plated on SDAE medium. Plates were incubated at 30 ° C for 48 h with confirmation after 72 h (yeasts) or at 28 ° C for 7 days with confirmation after 14 days (A. fumigatus), after which the CFU number was determined. The results were expressed as the logarithm of base 10 of the ratio between the CFU at each time point and the CFU at time 0. The detection limit of the method was ~1 log10 CFU mL^−1.

[2] = tested on: persister cells of P. aeruginosa; assay: Persister eradication, P. aeruginosa; type: cell-based, Pseudomonas aeruginosa; details: 1×MIC, 405 nm
C. albicans [3] = assay: In vivo G. mellonella model, C. albicans infection (survival, fungal burden); set-up: species or system Galleria mellonella; details: C. albicans-infected G. mellonella, 1×MIC
Procedure: The in vivo antifungal activity of MMs was assessed in G. mellonella (Li et al., 2013; (Slater et al., 2011). G. mellonella were acquired from a commercial supplier (rainbowmealworms.net) in their final instar larval stage. Worms of similar size (~0.3 g), responsive to touch, and displaying no signs of melanization were selected. C. albicans (~10^5 CFU mL^−1) and A. fumigatus conidia (~104 conidia mL^−1) suspensions were prepared in PBS as previously described. The fungal inoculum (5 μL) was injected into the last left proleg of the worms with a Hamilton syringe. Thirty minutes after infection, MM and/or antifungal agents (1×MIC, Table 2) diluted in sterile water were injected similarly to the right proleg. […] After 30 min, worms in the irradiated treatment groups were transferred to 24-well plates (Corning-Costar Corp., Corning, NY, USA) and irradiated with 405-nm light (87.6 J cm^−2). Worms were incubated in sterile Petri dishes at 30 ° C in the dark. Live and dead worms were scored each day for 7 days. Melanized or unresponsive worms were considered dead.
Fungal load was assessed in a separate group of similarly treated worms 48 h after infection. Only healthy larvae (four worms per treatment group) with no melanization spots were used. […] After 48 h at 30 ° C (C. albicans) or 7 days at 28 ° C (A. fumigatus), colonies were counted to determine CFU per mg of larvae.

superoxide dismutase = assay: Superoxide dismutase (SOD) activity; type: cell-based, Candida albicans; details: 0.5×MIC, p<0.05
Procedure: Superoxide dismutase (SOD) activity was determined using a Superoxide Dismutase Assay Kit (Caymanchem, MI, USA) per the distributor's instructions. Lipid peroxidation was determined using a TBARS assay kit (TCA method) (Caymanchem, MI, USA) per the distributor's instructions. SOD activity and MDA levels were normalized by protein content determined by the Pierce assay (Pierce™ BCA Protein Assay Kit, Thermo Fisher Scientific, MA, USA).

[4] = Singlet oxygen generation (DPBF); details: irradiated
Description: Percentage of DCFH-DA-(FIG. 45E) and APF-(FIG. 45F) positive cells, as detected using flow cytometry. UV-VIS spectra of the singlet oxygen trap DPBF in the presence of the fast antibacterial motor MM 1 (FIG. 45G) or the inert slow motor ARV 3-202 (FIG. 45H). (FIG. 451) Rate of decrease of the absorption of DPBF at 410 nm, indicative of singlet oxygen generation, in the presence of MM 1 or its slow analog ARV 3-202. […] Flow cytometry data (at least 10 000 cells) was acquired in a spectral analyzer (Sony SA3800) and analyzed using FlowJo software. Results are shown as the mean of at least 3 biological replicas±standard error of the mean. Comparisons between samples were performed in GraphPad Prism 8 using a Kruskal-Wallis test for comparison between three or more samples or an unpaired t-test for comparisons between two samples. * p<0.05. not significant=n.s.

B. megaterium = assay: MIC, B. megaterium; type: cell-based, Bacillus megaterium; details: Priestia megaterium, 405 nm light
Procedure: The appropriate volume of an MM stock at 8 mM necessary to achieve a concentration ranging from 0.3125 to 40 μM was pipetted into a 2 mL microcentrifuge tube to which 1 mL of cell suspension prepared as previously described was added. Corresponding negative controls (DMSO only) were prepared in the same way. The mixture was gently mixed by pipetting and incubated in the dark at 30 or 37 ° C, depending on the strain, for 30 min with agitation (220 rpm). Afterward, MM- or DMSO-treated cells were dispensed in one well of a 24-well plate positioned in the center of the light beam (405 nm LED Light, Prizmatix, UHP—F-5-405) placed at the appropriate distance necessary to achieve the desired light intensity of 304 mW cm-2, 146 mW cm2 or 87 mW cm2, as measured with a handheld digital power meter console coupled to an S415C thermal power sensor head (Thorlabs, Newton, MA, USA). The temperature during irradiation was monitored using a thermocouple probe (Model SC-TT-K-30-36-PP; Omega Engineering, Inc., Stanford, CT, USA). Samples were agitated during irradiation. Dark controls were prepared as previously described except that no irradiation was provided. […]

SMILES	time to reduce cell numbers to limit of detection (C. albicans [1]) [min]	time to reduce persister cells to limit of detection [2] [min]	time by which all worms died (C. albicans [3]) [days]	superoxide dismutase activity (superoxide dismutase)	singlet oxygen generation [4]	MIC (B. megaterium) [µM]
C[C@@H]1Cc2ccc3ccccc3c2/C1=C1\c2ccccc2Sc2cc(NCCN)ccc21 (racemic) [MM 6, N^1-(9-(2-methyl-2,3-dihydro-1H-cyclopenta[a]naphthalen-1-ylidene)-9H-thioxanthen-3-yl)ethane-1,2-diamine]	5	–	–	–	–	–
C[C@@H]1Cc2ccc3ccccc3c2/C1=C1\c2ccccc2Sc2cc(NCCN(C)C)ccc21 [MM 1, N^1N^1-dimethyl-N^2-(9-(2-methyl-2,3-dihydro-1H-cyclopenta[a]naphthalen-1-ylidene)-9H-thioxanthen-3-yl) ethane-1,2-diamine]	–	2	≤ 3	increased superoxide dismutase activity	lower than that of its slow, inert counterpart	0.078
